The record followed here is patent EP4818171A1 (Apeiron Therapeutics (Hong Kong) Ltd., priority 2024, dated 2025).

Data set [1] concerns HCT-116 MTAP(-/-)deleted cells. The conditions noted are these: 192 h.
Procedure: (§1) Only cells in the logarithmic growth phase could be used for the test. […] The cell concentration was adjusted, rendering that cells were inoculated into a 384-well plate at 40 µL per well and incubated overnight at 37°C and 5% carbon dioxide. 40 nL of the compound was added to each well to reach a final concentration of 0-10,000 nM (starting concentration 10,000 nM, 3-fold dilution, 10 points), and the cell plate with 0.1% DMSO content was incubated at 37°C and 5% carbon dioxide for 8 d. 40 µL of Cell-Titer Glo reagent was added to test cell viability.
Data set [2] has as its system LU99 MTAP(-/-)deleted cells. Conditions: 144 h.
Procedure: (§2) Materials and cells: LU99 MTAP deleted cell line was purchased from Kyinno Biotechnology (China); cell culture medium and fetal bovine serum were purchased from Thermo Fisher Scientific (USA); 384-well plates were purchased from PerkinElmer (USA); Cell-Titer Glo kits were purchased from Promega (USA). Cell culture: LU99 MTAP(-/-)deleted cells were cultured with medium containing 10% fetal bovine serum at 37°C in 5% carbon dioxide. Only cells in the logarithmic growth phase could be used for the test.
(§3) Test of inhibitory activity on cell proliferation: The Cell-Titer Glo kit was used to test the proliferation inhibitory activity of the compounds on LU99 MTAP(-/-)deleted cells. The cell concentration was adjusted, rendering that cells were inoculated into a 384-well plate at 40 µL per well and incubated overnight at 37°C and 5% carbon dioxide. […] 40 µL of Cell-Titer Glo reagent was added to test cell viability.
The subject of a further data set is HCT-116 wild-type cells. In words: Inhibitory activity on proliferation of HCT-116 wild-type cells (Cell-Titer Glo). The class given is cell-based. The conditions noted are these: 8 d incubation.
Data set [3] concerns LU99 MTAP overexpressing cells. The experiment in a line: Inhibitory activity on proliferation of LU99 MTAP overexpressing cells (Cell-Titer Glo). The conditions noted are these: 6 d incubation. The class given is cell-based.
Procedure: Materials and cells: LU99 MTAP overexpressing cell line was purchased from Kyinno Biotechnology (China); cell culture medium and fetal bovine serum were purchased from Thermo Fisher Scientific (USA); 384-well plates were purchased from PerkinElmer (USA); Cell-Titer Glo kits were purchased from Promega (USA).
Cell culture: LU99 MTAP overexpressing cells were cultured with medium containing 10% fetal bovine serum at 37°C in 5% carbon dioxide. Only cells in the logarithmic growth phase could be used for the test.
Test of inhibitory activity on cell proliferation: The Cell-Titer Glo kit was used to test the proliferation inhibitory activity of the compounds on LU99 MTAP overexpressing cells. The cell concentration was adjusted, rendering that cells were inoculated into a 384-well plate at 40 µL per well and incubated overnight at 37°C and 5% carbon dioxide. 40 nL of the compound was added to each well to reach a final concentration of 0-10,000 nM (starting concentration 10,000 nM, 2.5-fold dilution, 10 points), and the cell plate with 0.2% DMSO content was incubated at 37°C and 5% carbon dioxide for 6 d. 40 µL of Cell-Titer Glo reagent was added to test cell viability.
In data set [4] the test system is HCT-116 MTAP(-/-)deleted cells. The experiment in a line: Inhibitory activity on proliferation of HCT-116 MTAP(-/-)deleted cells (Cell-Titer Glo). Conditions: Homo sapiens, HCT-116, 192 h, read-out: IC50 (nM) HCT-116 MTAP(-/-)deleted.
Procedure: as §1
Data set [5] concerns LU99 MTAP(-/-)deleted cells. In words: Inhibitory activity on proliferation of LU99 MTAP(-/-)deleted cells (Cell-Titer Glo). Conditions: Homo sapiens, Lu-99, 144 h.
Procedure: as §2, §3
Data set [6] is described as follows: Pharmacokinetic test in mice. The class given is in vivo. Conditions: male, mouse, plasma, ICR mice; for bioavailability: read-out: Bioavailability (F). On the procedure: The test compounds are compounds according to examples of the present disclosure
ICR male mice N=3/group; original source: Zhejiang Vital River Laboratory Animal Technology Co., Ltd.
Single oral administration (PO) to ICR mice: The compound was weighed and dissolved with DMSO, a certain volume of polyethylene glycol 400 and water for injection (WFI) were added, and then a small volume of 1 mol/L hydrochloric acid solution was added to adjust to a clear solution. […]
Single intravenous (IV) administration to ICR mice: The compound was weighed and dissolved with DMSO, a certain volume of polyethylene glycol 400 and water for injection (WFI) were added, and then a small volume of 1 mol/L hydrochloric acid solution was added to adjust to a clear solution. The administration via tail vein injection was conducted for a total of 3 mice after fasting overnight at a dose of 3 mg/kg.
Blood was collected from the dorsalis pedis vein at approximately 30 µL/time point, anticoagulated with dipotassium ethylenediaminetetraacetate and kept on ice until plasma was separated by centrifugation (4000 g/min; 5 min; 4°C) within 1 h. The blood sampling time points were 0.0833 (intravenous injection), 0.25, 0.5, 1, 2, 4, 6, 8, and 24 h. The samples were stored in a refrigerator at -20°C.
A total of 30 µL of plasma sample (10 µL sample + 20 µL blank plasma sample) was added with 200 µL ice-cold ACN containing internal standard, vortexed for 30 s, and centrifuged at 4000 g/min for 20 min. A total of 100 µL of the supernatant was transferred to a 96-well plate, 200 µL of ultrapure water was added, vortexed for 30 s, and 5 µL or 10 µL was injected into LC-MS/MS for analysis. Table 2: Pharmacokinetic Data

[7] abbreviates: read-out: IC50 (nM) Lu99 MTAP(-/-)Deleted, LU99 MTAP(-/-)deleted cells, 6 d incubation, Cell-Titer Glo.

Like-named read-outs stand apart in the source and are kept apart here.

Procedure for HCT-116 wild-type cells: Cell culture: HCT-116 wild-type cells were cultured with a RPMI-1640 medium containing 10% fetal bovine serum+1% penicillin-streptomycin at 37°C in 5% carbon dioxide. Only cells in the logarithmic growth phase could be used for the test.
Test of cell proliferation activity: Cell-Titer Glo kit was used to test the proliferation inhibitory activity of the compound on HCT-116 wild-type cells. The cell concentration was adjusted, rendering that cells were inoculated into a 384-well plate at 40 µL per well and incubated overnight at 37°C and 5% carbon dioxide. 40 nL of the compound was added to each well to reach a final concentration of 0-10,000 nM (starting concentration 10,000 nM, 2-fold dilution, 10 points), and the cell plate with 0.1% DMSO content was incubated at 37°C and 5% carbon dioxide for 8 d. 40 µL of Cell-Titer Glo reagent was added to test cell viability.

For `CN(C(=O)c1ccc2nc(N)c3cncn3c2c1)C1COC2(CCC2)c2cc(N3CCOCC3)ncc21` (stereo not shown) [Example 6, 4-Amino-N-methyl-N-(7'-morpholinyl-3',4'-dihydrospiro[cyclobutane-1,1'-pyrano[4,3-c]pyridine]-4'-yl)imidazo[1,5-a]quinoxaline-8-carboxamide], the IC50 in data set [1] is 0.11 µM; in data set [2], 0.0885 µM; in the data set on HCT-116 wild-type cells, 10000 nM; in data set [3], 3880 nM.

Turning to `CN(C(=O)c1ccc2nc(N)c3cncn3c2c1)[C@@H]1COC2(CCC2)c2cc(N3CC[Si](C)(C)CC3)ncc21` [Example 34], the IC50 in data set [4] was 40 nM; in data set [5] (read-out: IC50 (nM) Lu99 MTAP(-/-)Deleted), 41.5 nM; with HCT-116 wild-type cells (Homo sapiens, 192 h), 5250 nM; in data set [3] (Homo sapiens, Lu-99, 144 h), 1430 nM.

Regarding `CN(C(=O)c1ccc2nc(N)c3cncn3c2c1)[C@@H]1COC2(CCC2)c2cc(-n3cc(C(F)(F)F)cn3)ncc21` [Example 45, (S)-4-amino-N-methyl-N-(7'-(4-(trifluoromethyl)-1H-pyrazol-1-yl)-3',4'-dihydrospiro[cyclobutane-1,1'-pyrano[4,3-c]pyridine]-4'-yl)imidazo[1,5-a]quinoxaline-8-carboxamide], the IC50 was found to be 34.1 nM in data set [4]; 30.2 nM in data set [5] (setting [7]); 7050 nM in the data set on HCT-116 wild-type cells (Homo sapiens, HCT-116, 192 h); 4710 nM in data set [3] (Homo sapiens, Lu-99, 144 h).

For `CN(C(=O)c1ccc2nc(N)c3cncn3c2c1)[C@@H]1COC2(CCC2)c2cc(N3C4COCC3C4)ncc21` [Example 48, N-((4'S)-7'-(3-oxa-6-azabicyclo[3.1.1]heptane-6-yl)-3',4'-dihydrospiro[cyclobutane-1,1'-pyrano[4,3-c]pyridine]-4'-yl)-4-amino-N-methylimidazo[1,5-a]quinoxaline-8-carboxamide], the IC50 in data set [4] was 144 nM; in data set [5] (setting [7]), 150 nM; in the data set on HCT-116 wild-type cells (Homo sapiens, HCT-116, 192 h) it was more than 20000 nM; in data set [3] (Homo sapiens, Lu-99, 144 h), 10600 nM.

As to `Cc1ncc2c(N)nc3cc(F)c(C(=O)N(C)C4COC5(CCCOC5)c5cc(C(F)(F)F)ccc54)cc3n12` (stereo not shown) [Example 51, 4-Amino-7-fluoro-N,1-dimethyl-N-(7-(trifluoromethyl)-5',6'-dihydro-2'H,4'H-pyran[isochroman-1,3'-pyran]-4-yl)imidazo[1,5-a]quinoxaline-8-carboxamide], the IC50 turned out to be 8.02 nM in data set [4]; 14 nM in data set [5] (setting [7]); 1830 nM in the data set on HCT-116 wild-type cells (Homo sapiens, HCT-116, 192 h); 1320 nM in data set [3] (Homo sapiens, Lu-99, 144 h).

As for `Cc1ncn2c1c(N)nc1cc(F)c(C(=O)N(C)C3COC4(CCCOC4)c4cc(C(F)(F)F)ccc43)cc12` (stereo not shown) [Example 52, 4-Amino-7-fluoro-N,3-dimethyl-N-(7-(trifluoromethyl)-5',6'-dihydro-2'H,4'H-pyran[isochroman-1,3'-pyran]-4-yl)imidazo[1,5-a]quinoxaline-8-carboxamide], the IC50 in data set [4] was found to be 8.06 nM; in data set [5] (setting [7]) it was 14.9 nM; with HCT-116 wild-type cells (Homo sapiens, HCT-116, 192 h) it was 602 nM; in data set [3] (Homo sapiens, Lu-99, 144 h), 539 nM.

For the compound `CN(C(=O)c1ccc2nc(N)c3cncn3c2c1)[C@H]1COC2(CC2)c2cc(C(F)(F)F)ccc21` [Example 53, (R)-4-amino-N-methyl-N-(7'-(trifluoromethyl)spiro[cyclopropane-1,1'-isochroman]-4'-yl)imidazo[1,5-a]quinoxaline-8-carboxamide], the IC50 in data set [4] turned out to be 419 nM; in data set [5] (setting [7]) it was 682 nM; in the data set on HCT-116 wild-type cells (Homo sapiens, HCT-116, 192 h), 7590 nM; in data set [3] (Homo sapiens, Lu-99, 144 h) it was 1750 nM.

`CN(C(=O)c1ccc2nc(N)c3cncn3c2c1)[C@@H]1COC2(CC2)c2cc(C(F)(F)F)ccc21` [Example 54, (S)-4-amino-N-methyl-N-(7'-(trifluoromethyl)spiro[cyclopropane-1,1'-isochroman]-4'-yl)imidazo[1,5-a]quinoxaline-8-carboxamide]: the bioavailability in data set [6] (PO(30mg/kg)) was determined as 86.5%; in data set [6] (PO(100mg/kg)) it was 48.2%. Further, the AUC(0-t) in data set [6] (IV(3mg/kg)) worked out at 25.4 µg·h/mL; in data set [6] (PO(30mg/kg)), 220 µg·h/mL; in data set [6] (PO(100mg/kg)), 408 µg·h/mL. The half-life is 2.37 h in data set [6] (IV(3mg/kg)), 1.47 h in data set [6] (PO(30mg/kg)) and 2.06 h in data set [6] (PO(100mg/kg)). Also, the IC50 in data set [4] turned out to be 5.8 nM; in data set [5] (setting [7]) it was 8.11 nM; in the data set with HCT-116 wild-type cells (Homo sapiens, HCT-116, 192 h), 1040 nM; in data set [3] (Homo sapiens, Lu-99, 144 h), 1100 nM.

Take `CN(C(=O)c1ccc2nc(N)c3cncn3c2c1)[C@@H]1COC(C)(C)c2cc(N3CCOCC3)ccc21` [Example 98, (S)-4-amine-N-(1,1-dimethyl-7-morpholinoisochroman-4-yl)-N-methylimidazo[1,5-a]quinoxaline-8-carboxamide]: the IC50 in data set [4] was 47.9 nM; in data set [5] (setting [7]) it was 57.5 nM; with HCT-116 wild-type cells (Homo sapiens, HCT-116, 192 h), more than 10000 nM; in data set [3] (Homo sapiens, Lu-99, 144 h) it was 8100 nM.

`CN(C(=O)c1ccc2nc(N)c3cncn3c2c1)[C@@H]1COC2(CCOCC2)c2cc(C(F)(F)F)ccc21` [Example 100, (S)-4-amino-N-methyl-N-(7'-(trifluoromethyl)-2',3',5',6'-tetrahydrospiro[isochroman-1,4'-pyran]-4-yl)imidazo[1,5-a]quinoxaline-8-carboxamide]: the IC50 in data set [4] stood at 5.2 nM; in data set [5] (setting [7]), 8.5 nM; with HCT-116 wild-type cells (Homo sapiens, HCT-116, 192 h), 902 nM; in data set [3] (Homo sapiens, Lu-99, 144 h), 938 nM.

With `CN(C(=O)c1ccc2nc(N)c3cncn3c2c1)[C@H]1COC2(CCOCC2)c2cc(C(F)(F)F)ccc21` [Example 101, (R)-4-amino-N-methyl-N-(7'-(trifluoromethyl)-2',3',5',6'-tetrahydrospiro[isochroman-1,4'-pyran]-4-yl)imidazo[1,5-a]quinoxaline-8-carboxamide], the IC50 is 403 nM in data set [4]; more than 1000 nM in data set [5] (setting [7]); 9490 nM in the data set on HCT-116 wild-type cells (Homo sapiens, HCT-116, 192 h); 5640 nM in data set [3] (Homo sapiens, Lu-99, 144 h).

Broadly, the bioavailability is the share of a dose that reaches the circulation, judged against a reference dose that is usually intravenous. As a reminder, the AUC(0-t) is exposure summed from dosing to a finite time, without extrapolation to infinity. Broadly, the half-life is the time needed for the level to fall by half in the phase considered. Read a high half-life as slow decline.
